≈ marks a conversion by molar mass, not a printed value. Where a SMILES comes first, the peptide text is derived from it. Bridges are numbered along the chain shown (N, C = ends). [ ]: non-standard residue; d: D form. The star is where a group is joined. ξ: configuration not given here. d(aThr) = C[C@@H](O)[C@@H](N)C(=O)O; Octanoyl(3-OH) = CCCCCC(O)CC(=O)*; X1 = CCCCCC(CC(=O)*)OC(C)=O; dDab = NCC[C@@H](N)C(=O)O; hSer = N[C@@H](CCO)C(=O)O; ξQ = NC(=O)CCC(N)C(=O)O; Dhb = C/C=C(\N)C(=O)O; ξL = CC(C)CC(N)C(=O)O; ξDab = NCCC(N)C(=O)O; ξK = NCCCCC(N)C(=O)O; ξT = CC(O)C(N)C(=O)O; ξV = CC(C)C(N)C(=O)O; ξAbu = CCC(N)C(=O)O; ξP = O=C(O)C1CCCN1; ξS = NC(CO)C(=O)O
Key:
[1] = tested on: Colletotrichum truncatum 17-5-5; conditions: strain 17-5-5; lipodepsipeptides, serial dilutions from 0.1 to 1 μg/mL, potato dextrose broth, 24-well plates, 28 °C, 7 days; lowest concentration with no visible growth; triplicate
Description: The antifungal activity was performed in 24-well culture plates according to the method previously described[31] with some modification. Serial dilutions of different lipodepsipeptides (from 0.1 to 1 μg/mL) and cyclic dipeptides (from 10 to 1000 μg/mL) were dissolved in a volume of 500 μL of ultrapure Milli-Q and finally inoculated with 500 μL of 2× potato dextrose broth (Difco) containing the Colletotrichum truncatum plug of 4 mm × 4 mm diameter. As a control, C. truncatum plugs (4 mm × 4 mm) were grown in 2× PD broth diluted with 500 μL of ultrapure Milli-Q water, and the plates were incubated at 28 °C for 7 days. The MIC was measured as the lowest concentration of antifungal agent at which there was no visible growth of the fungus after incubation. The experiment was performed in triplicate.

[2] = tested on: all the bacteria and the fungus tested; assay: Antimicrobial and antifungal tests, MIC ranges summarised over the panel; format: cell-based; conditions: for reduction of activity with respect to that of 9: compared with compound 9
Description: (§1) The experiment was performed in triplicate.
as §1

[3] = tested on: Phytophthora infestans; conditions: cited from earlier work
[4] = tested on: Plasmopara viticola; conditions: cited from earlier work
[5] = tested on: Bacillus subtilis PY79; conditions: PY79, 48 h
Description: (§2) Bacteria were grown in LB broth at 25 or 37 °C overnight at 150 rpm. A total of 500 μL of a suspension containing about 10^8 cfu mL^–1 were added to 3 mL of LB soft agar (0.7%) and poured onto plates containing 7 mL of LB broth with agar 1.8%. After agar gelification, 10 μL drops of serial dilutions of different lipodepsipeptides and their derivatives (from 0.1 to 1 μg/mL) and cyclic dipeptides (from 10 to 1000 μg/mL) were tested. After 24 ± 48 h of incubation at 25 or 37 °C, the end serial dilution inhibiting the growth of the bacteria in the area of application of 10 μL solutions was recorded. The plates containing the bacteria alone were used as a control. The experiment was performed in triplicate.

[6] = tested on: Bacillus megaterium QMB; conditions: 48 h
Description: as §2

[7] = tested on: Rhodococcus fascians LMG; conditions: cited from earlier work
[8] = lipodepsipeptides and derivatives, range over all the bacteria and the fungus tested (summary of Table 1)
[9] = 2,5-diketopiperazines, range over all microorganisms tested (summary of Table 2)

Q: For `C/C=C(\NC(=O)[C@H](NC(=O)[C@H](CC(C)C)NC(=O)[C@@H](CCC(N)=O)NC(=O)[C@@H](NC(=O)[C@H](NC(=O)[C@@H](CC(C)C)NC(=O)[C@@H](CO)NC(=O)[C@H](NC(=O)[C@@H](CC(C)C)NC(=O)[C@@H](CO)NC(=O)[C@H]1CCCN1C(=O)/C(=C/C)NC(=O)CC(O)CCCCC)C(C)C)C(C)C)C(C)C)C(C)C)C(=O)N[C@H]1C(=O)N[C@@H]([C@@H](C)CC)C(=O)N[C@@H](CCO)C(=O)N[C@H](CCN)C(=O)N[C@@H](CCCCN)C(=O)O[C@@H]1C` (stereo partly drawn) [compound 1, tolaasin I] ({Octanoyl(3-OH)}-[Dhb][dP][dS][dL][dV][dS][dL][dV]V[dQ]L[dV][Dhb][d(aThr)]I[hSer][dDab]K; ester 14-C), which MIC [1] is on record?
A: The MIC was 0.6 µg/mL (≈ 0.302 µM).

Q: What does the source list for `C/C=C(\NC(=O)C(NC(=O)C(CC(C)C)NC(=O)C(CCC(N)=O)NC(=O)C(NC(=O)C(NC(=O)C(CC(C)C)NC(=O)C(CO)NC(=O)C(NC(=O)C(CC(C)C)NC(=O)C(CO)NC(=O)C1CCCN1C(=O)/C(=C/C)NC(=O)CC(O)CCCCC)C(C)C)C(C)C)C(C)C)C(C)C)C(=O)NC1C(=O)N[C@@H](CC(C)C)C(=O)N[C@@H](CCO)C(=O)NC(CCN)C(=O)NC(CCCCN)C(=O)OC1C` (stereo partly drawn) [compound 7, tolaasin D] ({Octanoyl(3-OH)}-[Dhb][ξP][ξS][ξL][ξV][ξS][ξL][ξV][ξV][ξQ][ξL][ξV][Dhb][ξT]L[hSer][ξDab][ξK]; ester 14-C)?
A: MIC range [2, 8]: 0.1 to 0.2 µg/mL; MIC [1]: 0.2 µg/mL (≈ 0.101 µM)

Q: For `O=C1N[C@@H](Cc2ccc(O)cc2)C(=O)N2CCC[C@@H]12` [compound 9, cyclo(L-Pro-L-Tyr)], which MIC range [2, 9] is on record?
A: Its MIC range is 15 to 20 µg/mL.

Q: What about the “antifungal activity against Phytophthora infestans” value [3] of the same molecule?
A: The value was “showed antifungal activity”.

Q: What about the “antifungal activity against Plasmopara viticola” value [4] of the same molecule?
A: Its value is “showed antifungal activity”.

Q: Which “reduction of activity with respect to that of 9” value ([2]; 2,5-diketopiperazines) does the source give for `CC(C)C[C@@H]1NC(=O)[C@@H]2CCCN2C1=O` [compound 13, cyclo(L-Pro-L-Leu)] here?
A: The value was 40–50 times.

Q: And the MIC [5]?
A: Its MIC is 15 µg/mL (≈ 71.3 µM).

Q: And the MIC [6]?
A: Its MIC is 30 µg/mL (≈ 143 µM).

Q: Which “reduction of activity with respect to that of 9” value ([2]; 2,5-diketopiperazines) does the source give for `O=C1N[C@@H](Cc2ccc(O)cc2)C(=O)N2CCC[C@H]12` [compound 14, cyclo(D-Pro-L-Tyr)] here?
A: The value was 50–60 times.

Q: Which MIC range ([2]; lipodepsipeptides and derivatives, range against the pathogenic bacteria and C. truncatum only) does the source give for `C/C=C(\NC(=O)[C@H](NC(=O)[C@H](CC(C)C)NC(=O)[C@@H](CCC(N)=O)NC(=O)[C@@H](NC(=O)[C@H](NC(=O)[C@@H](CC(C)C)NC(=O)[C@@H](COC(C)=O)NC(=O)[C@H](NC(=O)[C@@H](CC(C)C)NC(=O)[C@@H](COC(C)=O)NC(=O)[C@H]1CCCN1C(=O)/C(=C/C)NC(=O)CC(CCCCC)OC(C)=O)C(C)C)C(C)C)C(C)C)C(C)C)C(=O)N[C@H]1C(=O)N[C@@H]([C@@H](C)CC)C(=O)N[C@@H](CCOC(C)=O)C(=O)N[C@H](CCNC(C)=O)C(=O)N[C@@H](CCCCNC(C)=O)C(=O)O[C@@H]1C` (stereo partly drawn) [compound 15, hexacetyl tolaasin I] (X1-[Dhb][dP][dS](Ac)[dL][dV][dS](Ac)[dL][dV]V[dQ]L[dV][Dhb][d(aThr)]I[hSer](Ac)[dDab](Ac)K(Ac); ester 14-C) here?
A: Its MIC range is 0.7 to 1 µg/mL.

Q: What about the MIC range [2, 8] of the same molecule?
A: Its MIC range is 0.7 to 1 µg/mL.

Q: What about the MIC [1] of the same molecule?
A: Its MIC is 1 µg/mL (≈ 0.446 µM).

Q: What does the source list for `CCCCCC(O)CC(=O)NC(CC)C(=O)N1CCC[C@@H]1C(=O)N[C@H](CO)C(=O)N[C@H](CC(C)C)C(=O)N[C@@H](C(=O)N[C@H](CO)C(=O)N[C@H](CC(C)C)C(=O)N[C@@H](C(=O)N[C@H](C(=O)N[C@H](CCC(N)=O)C(=O)N[C@@H](CC(C)C)C(=O)N[C@@H](C(=O)NC(CC)C(=O)N[C@H]1C(=O)N[C@@H]([C@@H](C)CC)C(=O)N[C@@H](CCO)C(=O)N[C@H](CCN)C(=O)N[C@@H](CCCCN)C(=O)O[C@@H]1C)C(C)C)C(C)C)C(C)C)C(C)C` (stereo partly drawn) [compound 16, tetrahydro tolaasin I] ({Octanoyl(3-OH)}-[ξAbu][dP][dS][dL][dV][dS][dL][dV]V[dQ]L[dV][ξAbu][d(aThr)]I[hSer][dDab]K; ester 14-C)?
A: MIC range [2, 8]: 0.2 to 3 µg/mL; MIC [1]: 3 µg/mL (≈ 1.51 µM)

Q: With WLIP methyl ester [WILP methyl ester] as the molecule, how does the MIC [1] read?
A: The MIC was 5 µg/mL.

Q: Which results are given for cyclo(L-Pro-L-Val) [compound 11]?
A: MIC range [2, 9]: not toxic; toxicity against Rhodococcus fascians [7]: toxicity similar to that of chloramphenicol
